# Source: publication PMC2902375 (Neuroreport, 2009)
# Biological target: CACNA1H (Homo sapiens, UniProt O95180)
# Assay: whole-cell voltage clamp, HEK-293
# Type: cell-based
# Sequence of CACNA1H (O95180 whole entry): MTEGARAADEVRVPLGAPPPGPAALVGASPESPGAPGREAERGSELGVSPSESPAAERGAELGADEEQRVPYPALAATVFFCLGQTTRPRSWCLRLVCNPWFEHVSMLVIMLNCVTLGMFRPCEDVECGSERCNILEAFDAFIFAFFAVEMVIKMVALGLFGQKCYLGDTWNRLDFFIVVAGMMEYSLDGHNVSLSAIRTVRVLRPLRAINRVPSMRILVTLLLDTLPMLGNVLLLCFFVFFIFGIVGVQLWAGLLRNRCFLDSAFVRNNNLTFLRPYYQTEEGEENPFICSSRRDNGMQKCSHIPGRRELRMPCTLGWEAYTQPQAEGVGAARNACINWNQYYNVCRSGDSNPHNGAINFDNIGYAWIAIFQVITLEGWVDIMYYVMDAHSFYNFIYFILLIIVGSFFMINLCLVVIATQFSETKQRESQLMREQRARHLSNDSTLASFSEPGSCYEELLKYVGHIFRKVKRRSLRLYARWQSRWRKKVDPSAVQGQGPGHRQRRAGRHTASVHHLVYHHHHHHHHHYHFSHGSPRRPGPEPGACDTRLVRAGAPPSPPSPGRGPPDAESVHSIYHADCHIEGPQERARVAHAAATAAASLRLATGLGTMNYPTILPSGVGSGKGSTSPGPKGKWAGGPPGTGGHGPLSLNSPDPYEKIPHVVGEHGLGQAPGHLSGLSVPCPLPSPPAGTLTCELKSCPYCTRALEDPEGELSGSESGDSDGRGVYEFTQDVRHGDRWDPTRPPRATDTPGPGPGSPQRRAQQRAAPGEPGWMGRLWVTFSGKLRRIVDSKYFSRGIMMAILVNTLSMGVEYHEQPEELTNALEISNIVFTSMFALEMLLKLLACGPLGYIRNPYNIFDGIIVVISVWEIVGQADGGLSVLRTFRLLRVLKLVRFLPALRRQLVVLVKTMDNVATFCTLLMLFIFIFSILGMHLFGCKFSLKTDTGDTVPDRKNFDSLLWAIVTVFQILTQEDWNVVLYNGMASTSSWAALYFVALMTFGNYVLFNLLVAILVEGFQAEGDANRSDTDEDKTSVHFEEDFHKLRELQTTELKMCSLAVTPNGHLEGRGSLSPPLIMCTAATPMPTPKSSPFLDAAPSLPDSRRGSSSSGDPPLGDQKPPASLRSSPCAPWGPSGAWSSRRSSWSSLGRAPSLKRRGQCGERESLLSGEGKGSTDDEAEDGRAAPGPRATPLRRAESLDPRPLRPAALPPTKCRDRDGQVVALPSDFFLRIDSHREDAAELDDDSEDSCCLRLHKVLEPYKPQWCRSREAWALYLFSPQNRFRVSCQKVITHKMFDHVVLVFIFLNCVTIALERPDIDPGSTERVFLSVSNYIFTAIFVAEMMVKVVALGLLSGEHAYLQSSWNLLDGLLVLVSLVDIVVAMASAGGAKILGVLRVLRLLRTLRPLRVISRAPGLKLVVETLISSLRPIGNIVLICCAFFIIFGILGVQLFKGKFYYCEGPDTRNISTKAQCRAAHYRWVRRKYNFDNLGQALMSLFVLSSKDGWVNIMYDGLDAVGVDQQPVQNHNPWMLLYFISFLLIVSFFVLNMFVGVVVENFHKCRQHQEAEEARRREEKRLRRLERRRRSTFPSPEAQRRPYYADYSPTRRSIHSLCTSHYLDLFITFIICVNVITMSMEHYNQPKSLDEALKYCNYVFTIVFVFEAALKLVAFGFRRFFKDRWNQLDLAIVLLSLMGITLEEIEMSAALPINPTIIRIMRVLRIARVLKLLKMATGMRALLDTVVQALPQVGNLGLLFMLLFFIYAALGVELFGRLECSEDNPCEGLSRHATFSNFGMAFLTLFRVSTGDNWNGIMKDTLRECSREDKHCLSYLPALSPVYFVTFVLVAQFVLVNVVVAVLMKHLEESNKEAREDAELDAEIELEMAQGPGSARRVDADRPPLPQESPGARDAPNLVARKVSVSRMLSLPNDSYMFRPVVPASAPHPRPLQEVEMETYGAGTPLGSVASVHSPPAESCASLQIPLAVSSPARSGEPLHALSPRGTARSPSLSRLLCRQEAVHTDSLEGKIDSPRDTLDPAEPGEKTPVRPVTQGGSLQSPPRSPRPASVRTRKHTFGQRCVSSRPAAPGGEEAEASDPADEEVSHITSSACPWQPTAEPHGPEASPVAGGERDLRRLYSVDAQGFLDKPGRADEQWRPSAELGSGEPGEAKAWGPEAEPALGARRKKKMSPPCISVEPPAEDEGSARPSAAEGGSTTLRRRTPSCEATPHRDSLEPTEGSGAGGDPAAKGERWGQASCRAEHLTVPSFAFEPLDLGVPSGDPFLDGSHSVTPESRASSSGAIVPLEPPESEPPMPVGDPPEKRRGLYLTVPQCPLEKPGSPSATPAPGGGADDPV
smiles,measurement,value
"Fc1ccc(CN(CC(F)(F)F)C2CCN(CCCc3c[nH]c4ccc(Cn5cncn5)cc34)CC2)cc1 [TTA-I1, N-(4-fluorobenzyl)-1-{3-[5-(1H-1,2,4-triazol-1-ylmethyl)-1H-indol-3-yl]propyl}-N-(2,2,2-trifluoroethyl)piperidin-4-amine]",IC50,3 nM
